Assay results from patent publication US7875270B2, “Treatment solution and method for preventing posterior capsular opacification by selectively inducing detachment and/or death of lens epithelial cells” (Abbott Medical Optics Inc., priority 2002, dated 2011).

What was measured:
[1] = test system: human LECs-CCCs freshly removed from cataract operation; assay: In situ treatment of LECs attached to capsulorhexis lens capsule (LECs-CCC); type: cell-based
Procedure: The in situ effects of a treatment solution comprising dihydrochlorothiazide (DHCT) (a cotransport interference agent from the group of the thiazide and related diuretics) and hyperosmotic NaCl on human LECs is examined. The treatment is tested on LECs that are still attached to a continuous curvilinear capsulorhexis lens capsule (LECs-CCC) which are freshly removed from a human cataract operation.
The LECs-CCCs are obtained from a cataract operation and immediately put in freshly prepared Eagle's Minimum Essential Medium (MEM) supplemented with 2 mM glutamine, 25 mmol/L Hepes (pH 7.4) without foetal cow serum (FCS) and is transferred to the laboratory for evaluation. Viable LECs are identified by staining the LECs-CCCs for five minutes with 0.2% Trypan Blue. The sheets containing more than 70% viable LECs are used to assess the efficacy of the treatment. […]
In the first step, a hyperosmotic solution of NaCl is prepared by making a stock solution of 2 M NaCl by adding 58.44 g NaCl (supplied by Sigma Chemical Co., U.S.) to 500 ml dH2O. The desired concentration of osmotic NaCl is prepared by diluting the 2M stock solution with dH2O. For example, to make a hyperosmotic solution of 170 mM NaCl, the 2M NaCl stock solution was diluted with dH2O at a ratio of […]. To make a hyperosmotic solution of 200 mM NaCl, the 2M NaCl stock solution is diluted with dH2O at a ratio of 1 to 9. Final osmolarities (mOsm/kg/H2O) are determined by a freezing point depression method using cryoscopic osmometry.
In the second step, DHCT stock solution is made by adding 25 mg DHCT to 1 ml dH2O. […]
The treatment is applied by exposing the LECs-CCCs for five minutes in a small petri dish containing the treatment solution. The treatment solution is removed after five minutes exposure by a syringe and then the fresh PBS is added in the petri dish to wash away the treatment solution. The LECs-CCCs are washed three times. The changes of the LECS are monitored under a microscope. Microscope photographs are taken at 0, 2 and 5 minutes and after wash.

in vivo rabbit eyes = assay: In vivo prevention of PCO after cataract operation in rabbit eyes; conditions: DHCT and hyperosmotic NaCl
Procedure: The experimental group includes sixteen rabbit eyes and the control group includes four rabbit eyes. A sham cataract operation is performed on the control animals. The therapy is introduced to the others.
The pupil of each rabbit eye is preoperatively dilated with topical G Phenylephrine 10% (Alcon Labs., Inc., China) and G Cyclopentolate 1% (Bausch & Lomb Pharm., Inc., USA) three times in one hour. The rabbits are anesthetized with ketamine hydrochloride (5 mg kg-1) and xylazine hydrochloride (2 mg kg-1) and placed on an operating table. A topical anesthetic (Dieaine hydrochloride 1%) is used every five minutes on two occasions. A wire lid speculum is placed to hold the eyelids open.
A 3.2 mm scleral tunnel incision into the eye is formed at the temporal limbus. The anterior chamber is maintained with viscoelastic substances and a 4-5 mm diameter continuous curvilinear capsularhexis (CCC) is made on the anterior surface of the lens to open its bag. The treatment solution is first introduced in the LECs by hydrodissection. This ensures that the treatment fluid immediately reaches under the entire anterior capsule/LECs. This process allows for (i) separation of the lens cortex from the capsule and lens epithelium, making removal of the lens cortex easier at a later stage of the operation and (ii) the LECs to be exposed to the treatment for enough time (more than five minutes in total time).
The crystalline lens is then removed using phacoemulsification (Universal II, Alcon Labs., Inc., China). The remaining cortex is aspirated thoroughly and removed as completely as possible to expose the LECs. The lens capsular bag is then partially filed with viscoelastic material in order to maintain its shape. The viscoelastic material should not cover the LECs when the treatment solution is applied.
The treatment is spread over the inner surface of the anterior capsular bag (where the LECs attach). The anterior capsular is continuously filled by using a syringe with a bent needle. Care is taken not to over flow the bag. After the treatment solution covered the capsule bag, it is left for five minutes and then removed using a syringe.
In a few cases, IOLs are inserted. […] At the same time, the incision is enlarged to 6.0 mm and a posterior ocular lens (IOLs) (poly-methyl methacrylate, PMMA) with a 6.5 mm optic is prepared and placed into the capsular bag.
The wound is closed with or without suture.
At the completion of the surgical procedure, each rabbit eye receives subconjunctival dexamethasone (0.25 ml) and gentamicin (0.25 ml). Postoperatively, atropine sulphate 1% ophthalmic solution and neomycin sulphate-polymyxin sulphate-dexamethasone ophthalmic ointment are administered twice daily for three weeks.
The animals are evaluated for three weeks and ten weeks. […] All rabbits are evaluated by slitlamp and scored for ocular responses at 1 day and at 1, 2 and 3 weeks. (See FIG. 17, Table 1.) Three and ten weeks after surgery, the animals are anesthetized using a 2 ml intramuscular injection of 11:1 mixture of ketamine hydrochloride and xylazine 20 mg/ml and then killed with a 2 ml intravenous injection of sodium pentobarbital.
The eye globes are enucleated (some of them fixed in neutral buffered formalin 10% solution for 24 hours) and are bisected coronally just anterior to the equator. Gross examination is performed to assess. PCO development. Photographs are taken from behind (Miyake-Apple posterior photographic technique) by using a digital camera fitted to an operating microscope (Leica/Wild MZ-8, Vashaw Scientific, Inc.).
The extent and severity of PCO is scored (see FIG. 17, Table 1) according to methods reported in the literature. The lens capsules are then fixed and evaluated under a microscope (Olumpus, Optical Co. Ltd.) and photographed with a digital camera.

gramicidin
living LECs after rinsing ([1]; 10 or 100 μm gramicidin and PBS): no living cells remain | LEC changes after exposure ([1]; 10 or 100 μm gramicidin and PBS, five minutes): shrink and large gaps gradually form between the cells. The shrinking cells then gradually round up and burst

NS(=O)(=O)c1cc2c(cc1Cl)NCNS2(=O)=O [DHCT, dihydrochlorothiazide]
Soemmering's ring (in vivo rabbit eyes): Most eyes did develop some degree of Soemmering's ring | intraocular inflammatory reaction and deposits (in vivo rabbit eyes; 3 and 10 weeks post-treatment): minimal intraocular inflammatory reaction and deposits on the lens capsule surface | development of central PCO (CPCO) and peripheral PCO (PPCO) (in vivo rabbit eyes; three or ten weeks post-treatment): No central PCO(CPCO) (the area within the pupillary area) and peripheral PCO (PPCO) (within 6-6.5 mm outside the pupillary area) is found to have developed | lens epithelial cells in pupil area (phase contrast) (in vivo rabbit eyes; three weeks after surgery, no IOLs insertion): no remaining lens epithelial cells | LEC changes after exposure ([1]; 170 or 200 mM NaCl and 200 or 300 μm DHCT, pH ±7.8, five minutes): shrink and gradually large gaps form between the cells. The shrinking cells then gradually round up and burst | living LECs after wash ([1]; 200 μm DHCT and hyperosmotic ≦200 mM NaCl): no living cells can be observed
